Experimental data reported in paper PMC11487425 (RSC Medicinal Chemistry, 2024).
Read-outs that look alike come from different tables or passages of the source.

What was measured:
[1] = test system: DYRK1A; settings: cited from earlier work
[2] = molecular target: T1, DYRK1B (Homo sapiens, UniProt Q9Y463); experiment: DYRK1B radiometric kinase assay with Woodtide substrate peptide; format: biochemical; settings: read-out: % inhibition at 1 μM, DYRK1B
[3] = rat liver microsomes
[4] = molecular target: T2, CLK1 (Homo sapiens, UniProt P49759); experiment: Z'-LYTE kinase activity assay
T2 sequence (P49759 whole entry): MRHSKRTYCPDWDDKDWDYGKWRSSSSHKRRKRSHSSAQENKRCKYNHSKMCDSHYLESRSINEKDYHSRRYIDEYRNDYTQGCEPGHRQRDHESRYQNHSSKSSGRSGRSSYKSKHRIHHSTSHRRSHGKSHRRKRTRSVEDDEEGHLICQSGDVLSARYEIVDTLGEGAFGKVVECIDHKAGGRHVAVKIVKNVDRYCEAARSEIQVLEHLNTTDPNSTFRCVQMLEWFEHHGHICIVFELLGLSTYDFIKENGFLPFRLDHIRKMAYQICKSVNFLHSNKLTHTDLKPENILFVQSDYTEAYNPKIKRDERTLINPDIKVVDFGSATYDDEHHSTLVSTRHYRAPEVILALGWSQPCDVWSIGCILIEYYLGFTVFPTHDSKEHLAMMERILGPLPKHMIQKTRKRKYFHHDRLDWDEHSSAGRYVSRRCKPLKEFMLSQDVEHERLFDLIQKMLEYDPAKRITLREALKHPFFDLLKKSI

[5] = molecular target: T3, DYRK2 (Homo sapiens, UniProt Q92630); experiment: LanthaScreen kinase binding assay
T3 sequence (Q92630 1-601): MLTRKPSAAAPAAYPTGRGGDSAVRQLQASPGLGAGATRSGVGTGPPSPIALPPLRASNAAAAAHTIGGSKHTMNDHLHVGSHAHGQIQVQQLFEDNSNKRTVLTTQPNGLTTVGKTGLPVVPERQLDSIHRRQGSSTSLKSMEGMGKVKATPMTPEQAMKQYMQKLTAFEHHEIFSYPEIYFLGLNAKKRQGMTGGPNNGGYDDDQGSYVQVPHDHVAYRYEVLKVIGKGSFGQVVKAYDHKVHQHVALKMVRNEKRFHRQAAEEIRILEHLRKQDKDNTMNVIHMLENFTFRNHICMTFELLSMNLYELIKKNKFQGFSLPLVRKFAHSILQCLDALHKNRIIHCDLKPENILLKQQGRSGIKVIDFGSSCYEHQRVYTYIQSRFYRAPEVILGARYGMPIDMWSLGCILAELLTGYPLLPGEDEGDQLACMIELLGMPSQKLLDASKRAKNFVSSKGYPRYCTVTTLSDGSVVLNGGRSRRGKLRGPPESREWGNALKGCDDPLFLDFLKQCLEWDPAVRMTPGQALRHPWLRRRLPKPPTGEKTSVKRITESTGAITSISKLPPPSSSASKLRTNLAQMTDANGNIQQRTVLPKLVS

[6] = molecular target: T2, CLK1; experiment: Radiometric kinase assay; format: biochemical
[7] = molecular target: T1, DYRK1B; experiment: Z'-LYTE kinase activity assay

T1 sequence (Q9Y463 whole entry): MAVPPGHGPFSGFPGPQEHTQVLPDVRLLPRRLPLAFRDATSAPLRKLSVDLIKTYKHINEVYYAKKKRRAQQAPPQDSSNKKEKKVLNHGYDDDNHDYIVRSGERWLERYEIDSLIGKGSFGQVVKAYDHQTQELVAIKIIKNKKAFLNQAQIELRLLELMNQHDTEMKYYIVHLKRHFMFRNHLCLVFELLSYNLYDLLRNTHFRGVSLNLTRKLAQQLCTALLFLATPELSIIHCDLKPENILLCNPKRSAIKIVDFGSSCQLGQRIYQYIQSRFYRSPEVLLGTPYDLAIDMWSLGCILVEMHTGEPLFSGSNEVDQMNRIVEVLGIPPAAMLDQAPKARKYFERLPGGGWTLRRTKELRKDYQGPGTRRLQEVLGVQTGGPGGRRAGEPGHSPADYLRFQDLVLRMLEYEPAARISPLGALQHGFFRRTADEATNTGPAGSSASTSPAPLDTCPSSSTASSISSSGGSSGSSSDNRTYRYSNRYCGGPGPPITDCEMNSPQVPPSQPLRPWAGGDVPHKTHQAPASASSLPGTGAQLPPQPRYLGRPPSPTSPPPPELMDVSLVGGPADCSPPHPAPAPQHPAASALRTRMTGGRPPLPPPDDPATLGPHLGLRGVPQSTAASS

inhibition at 1 µM [2] [%]	microsomal stability in words [3]	Structure (SMILES)	also measured
		O=C(c1ccccc1)c1cc2cc(O)ccc2s1 [5c]	IC50 ([1]; read-out: IC50 for DYRK1A, benzothiophenyl-acetophenones 5, Fig. 2): 2000 nM
93		COc1ccc2c(c1)-c1c(sc3ccc(O)cc13)C2=O [4j, 2-Hydroxy-9-methoxy-6H-benzo[b]indeno[1,2-d]thiophen-6-one]	
68		COc1ccc2sc3c(c2c1)-c1ccccc1C3=O [4e, 2-Methoxy-6H-benzo[b]indeno[1,2-d]thiophen-6-one]	
	rapidly metabolized	COc1cccc2c1-c1c(sc3ccccc13)C2=O [4a, 10-Methoxy-6H-benzo[b]indeno[1,2-d]thiophen-6-one]	
89		O=C1c2ccccc2-c2c1sc1ccc(O)cc21 [4i, 2-Hydroxy-6H-benzo[b]indeno[1,2-d]thiophen-6-one]	
78		COc1ccc2c(c1)C(=O)c1sc3ccc(O)cc3c1-2 [4k, 2-Hydroxy-8-methoxy-6H-benzo[b]indeno[1,2-d]thiophen-6-one]	IC50 [4]: 1080 nM; IC50 [5]: 186 nM; IC50 [6]: 20 nM; IC50 [7]: 206 nM
< 5	rapidly metabolized	COc1ccc2sc3c(c2c1)-c1c(OC)cccc1C3=O [4f, 2,10-Dimethoxy-6H-benzo[b]indeno[1,2-d]thiophen-6-one]	
7	rapidly metabolized	COc1cccc2c1C(=O)c1sc3ccccc3c1-2 [4d, 7-Methoxy-6H-benzo[b]indeno[1,2-d]thiophen-6-one]	
		CC(=O)c1cc2cc(O)ccc2s1 [1-(5-hydroxy-1-benzothiophen-2-yl)ethan-1-one]	IC50 ([1]; read-out: IC50 DYRK1A): 200 nM
